Reference: patent US9161541B2, “Pesticide composition comprising propamocarb-hydrochloride and an insecticide active substance” (priority 2006, dated 2015)

Tests used:
Type in all cases: in vivo
[1] = system: larvae of the fall army worm (Spodoptera frugiperda); test: Spodoptera frugiperda test (cabbage leaf dip, larval mortality); details: mortality after 4 days
Protocol: (§1) Solvent: 7 parts by weight of dimethylformamide
(§2) Emulsifier: 2 parts by weight of alkylaryl polyglycolether
(§3) To produce a suitable preparation of active compound, 1 part by weight of active compound is mixed with the stated amount of solvent and emulsifier, and the concentrate is diluted with emulsifier-containing water to the desired concentration. Cabbage leaves (Brassica oleracea) are treated by being dipped into the preparation of the active compound at the desired concentration and are infested with larvae of the fall army worm (Spodoptera frugiperda) as long as the leaves are still moist. After a period of time of 4 days, the mortality is determined. 100% means that all the caterpillars have been killed; 0% means that none of the caterpillars have been killed.

[2] = system: larvae of the beet army worm (Spodoptera exigua); test: Spodoptera exigua test (cabbage leaf dip, larval mortality); details: mortality after 6 days; rate of application 100 ppm
Protocol: as §1, §2
as §3, with “beet” for “fall”, “exigua)” for “frugiperda)”, “6” for “4”

[3] = system: larvae of the diamond black moth Plutella xylostella; test: Plutella xylostella test (cabbage leaf dip, larval mortality); details: mortality after 4 days
Protocol: as §1, §2
as §3, with “diamond black moth Plutella xylostella” for “fall army worm (Spodoptera frugiperda)”

CN/C(=N\[N+](=O)[O-])NCc1cnc(Cl)s1 [clothianidin]
Efficacy (%) ([1]; rate of application 20 ppm): 0%
Efficacy (%) [2]: 45%

O=[N+]([O-])NC1=NCCN1Cc1ccc(Cl)nc1 [imidacloprid]
Efficacy (%) ([1]; rate of application 20 ppm): 0%

CCCOC(=O)NCCCN(C)C.Cl [propamocarb, propyl[3-(dimethylamino)propyl]carbamate hydrochloride]
Efficacy (%) ([1]; rate of application 100 ppm): 0%
Efficacy (%) ([1]; rate of application 200 ppm): 0%
Efficacy (%) ([3]; rate of application 200 ppm): 25%
Efficacy (%) [2]: 0%

N#C/N=C1\SCCN1Cc1ccc(Cl)nc1 [thiacloprid]
Efficacy (%) ([3]; rate of application 20 ppm): 20%

CN1COCN(Cc2cnc(Cl)s2)/C1=N\[N+](=O)[O-] [thiamethoxam]
Efficacy (%) ([1]; rate of application 100 ppm): 0%
